Reference: patent publication US8124610B2, “Sodium channel inhibitors” (Icagen Inc., priority 2007, dated 2012)
pIC50: −log10 of the molar value.

Molecular target: T1, hSCN9A (Homo sapiens, UniProt Q15858)
T1 construct: expressed in transfected cells
Test: Whole-cell patch-clamp electrophysiology (conventional or PatchXpress), HEK cells expressing hSCN9A, estimated IC-50
Format: cell-based
Settings: estimated IC-50, HEK cells expressing hSCN9A; class symbols or bounds; read-out: SCN9A EIC-50
Method in brief: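 Current through each channel was evoked by a 20 ms step to 0 mV following an 8 s conditioning prepulse at the cell's own half-inactivation voltage. Recordings used HEK lines stably expressing the channel, conventional or PatchXpress patch clamp, room temperature, pH 7.4 bath; inhibition taken as pre/post-compound amplitude change.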

T1 sequence (Q15858 whole entry): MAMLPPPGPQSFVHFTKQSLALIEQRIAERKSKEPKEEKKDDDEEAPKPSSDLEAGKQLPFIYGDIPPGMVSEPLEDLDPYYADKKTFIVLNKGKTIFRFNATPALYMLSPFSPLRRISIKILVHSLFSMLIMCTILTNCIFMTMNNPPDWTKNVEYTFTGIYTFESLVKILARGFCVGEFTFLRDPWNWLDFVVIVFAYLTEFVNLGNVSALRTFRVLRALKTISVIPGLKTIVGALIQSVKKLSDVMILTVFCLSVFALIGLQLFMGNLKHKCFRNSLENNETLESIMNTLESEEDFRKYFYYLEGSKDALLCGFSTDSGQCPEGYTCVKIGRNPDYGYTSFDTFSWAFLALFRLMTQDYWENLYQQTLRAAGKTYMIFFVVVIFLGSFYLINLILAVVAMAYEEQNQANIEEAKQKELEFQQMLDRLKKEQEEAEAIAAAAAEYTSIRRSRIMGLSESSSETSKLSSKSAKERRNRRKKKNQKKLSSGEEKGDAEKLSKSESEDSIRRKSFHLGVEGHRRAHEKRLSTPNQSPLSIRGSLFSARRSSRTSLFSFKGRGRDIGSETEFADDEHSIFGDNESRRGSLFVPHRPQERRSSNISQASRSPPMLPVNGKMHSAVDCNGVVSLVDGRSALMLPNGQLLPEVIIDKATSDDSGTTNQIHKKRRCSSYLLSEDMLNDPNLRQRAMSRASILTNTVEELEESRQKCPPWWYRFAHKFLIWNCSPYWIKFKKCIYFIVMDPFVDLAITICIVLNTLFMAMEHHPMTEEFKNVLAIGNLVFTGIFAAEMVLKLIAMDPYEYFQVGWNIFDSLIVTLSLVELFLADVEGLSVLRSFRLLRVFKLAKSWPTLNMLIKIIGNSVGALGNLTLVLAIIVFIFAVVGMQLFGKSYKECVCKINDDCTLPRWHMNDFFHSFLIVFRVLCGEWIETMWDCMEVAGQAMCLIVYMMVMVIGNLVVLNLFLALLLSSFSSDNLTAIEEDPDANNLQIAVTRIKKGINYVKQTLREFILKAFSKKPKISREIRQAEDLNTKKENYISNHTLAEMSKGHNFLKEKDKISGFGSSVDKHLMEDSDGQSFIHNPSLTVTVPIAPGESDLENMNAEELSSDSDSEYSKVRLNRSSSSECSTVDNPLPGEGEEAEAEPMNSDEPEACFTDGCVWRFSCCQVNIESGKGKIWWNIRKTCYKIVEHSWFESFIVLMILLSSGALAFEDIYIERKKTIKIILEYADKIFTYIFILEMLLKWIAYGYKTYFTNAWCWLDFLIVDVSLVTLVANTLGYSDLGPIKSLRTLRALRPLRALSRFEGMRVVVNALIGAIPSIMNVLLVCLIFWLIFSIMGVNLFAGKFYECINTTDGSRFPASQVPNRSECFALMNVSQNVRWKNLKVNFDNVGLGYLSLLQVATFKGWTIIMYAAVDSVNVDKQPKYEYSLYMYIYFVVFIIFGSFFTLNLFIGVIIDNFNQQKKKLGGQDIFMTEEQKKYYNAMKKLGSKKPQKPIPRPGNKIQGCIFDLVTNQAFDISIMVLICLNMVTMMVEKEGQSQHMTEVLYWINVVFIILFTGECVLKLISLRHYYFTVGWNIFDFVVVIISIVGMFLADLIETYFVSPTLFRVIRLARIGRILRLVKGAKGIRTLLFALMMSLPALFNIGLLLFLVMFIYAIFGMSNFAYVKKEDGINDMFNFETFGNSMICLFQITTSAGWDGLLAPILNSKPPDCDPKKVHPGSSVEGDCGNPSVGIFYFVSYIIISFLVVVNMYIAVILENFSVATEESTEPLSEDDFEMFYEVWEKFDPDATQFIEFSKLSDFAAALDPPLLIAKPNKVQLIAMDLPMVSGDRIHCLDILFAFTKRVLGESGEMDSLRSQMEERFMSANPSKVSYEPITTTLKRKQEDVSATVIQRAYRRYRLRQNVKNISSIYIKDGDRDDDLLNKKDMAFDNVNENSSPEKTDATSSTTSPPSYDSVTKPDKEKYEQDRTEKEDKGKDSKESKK

Compound | pIC50
O=S(=O)(Nc1nncs1)c1ccc(Nc2ccn(Cc3ccc(Cl)cc3)n2)cc1F [Compound 232, 4-(1-(4-chlorobenzyl)-1H-pyrazol-3-ylamino)-2-fluoro-N-(1,3,4-thiadiazol-2-yl)benzenesulfonamide] | > 5.70
Cc1cc(Nc2ccc(S(=O)(=O)Nc3nc(C)ns3)c(F)c2)n(-c2ccccc2)n1 [Compound 236, 2-fluoro-N-(3-methyl-1,2,4-thiadiazol-5-yl)-4-(3-methyl-1-phenyl-1H-pyrazol-5-ylamino)benzenesulfonamide] | 5.00 to 5.70
Cc1cc(Nc2ccc(S(=O)(=O)Nc3nnc(C)o3)c(F)c2)n(-c2ccccc2)n1 [Compound 237, 2-fluoro-N-(5-methyl-1,3,4-oxadiazol-2-yl)-4-(3-methyl-1-phenyl-1H-pyrazol-5-ylamino)benzenesulfonamide] | 5.00 to 5.70
Cc1cc(Nc2ccc(S(=O)(=O)Nc3ncc(C)s3)c(F)c2)n(-c2ccccc2)n1 [Compound 239, 2-fluoro-4-(3-methyl-1-phenyl-1H-pyrazol-5-ylamino)-N-(5-methylthiazol-2-yl)benzenesulfonamide] | 5.00 to 5.70
O=S(=O)(Nc1nnc(C(F)(F)F)s1)c1ccc(Nc2ccn(Cc3ccc(Cl)cc3)n2)cc1F [Compound 243, 4-(1-(4-chlorobenzyl)-1H-pyrazol-3-ylamino)-2-fluoro-N-(5-(trifluoromethyl)-1,3,4-thiadiazol-2-yl)benzenesulfonamide] | 5.00 to 5.70
Cc1cc(Nc2ccc(S(=O)(=O)Nc3nnc(C)s3)c(F)c2)n(-c2ccccc2)n1 [Compound 247, 2-fluoro-N-(5-methyl-1,3,4-thiadiazol-2-yl)-4-(3-methyl-1-phenyl-1H-pyrazol-5-ylamino)benzenesulfonamide] | < 6.00
Cc1cc(Nc2ccc(S(=O)(=O)Nc3nnc(C(F)F)s3)c(F)c2)n(-c2ccccc2)n1 [Compound 248, N-(5-(difluoromethyl)-1,3,4-thiadiazol-2-yl)-2-fluoro-4-(3-methyl-1-phenyl-1H-pyrazol-5-ylamino)benzenesulfonamide] | 5.00 to 5.70
O=S(=O)(Nc1nnc(C2CC2)s1)c1ccc(Nc2ccn(Cc3ccc(Cl)cc3)n2)cc1F [Compound 253, 4-(1-(4-chlorobenzyl)-1H-pyrazol-3-ylamino)-N-(5-cyclopropyl-1,3,4-thiadiazol-2-yl)-2-fluorobenzenesulfonamide] | < 6.00
CC(C)c1nnc(NS(=O)(=O)c2ccc(Nc3ccn(Cc4ccc(Cl)cc4)n3)cc2F)s1 [Compound 256, 4-(1-(4-chlorobenzyl)-1H-pyrazol-3-ylamino)-2-fluoro-N-(5-isopropyl-1,3,4-thiadiazol-2-yl)benzenesulfonamide] | < 6.00
O=S(=O)(Nc1nc(C(F)(F)F)cs1)c1ccc(Nc2nc(Cc3ccc(Cl)cc3)cs2)cc1 [Compound 257, 4-(4-(4-chlorobenzyl)thiazol-2-ylamino)-N-(4-(trifluoromethyl)thiazol-2-yl)benzenesulfonamide] | 5.00 to 5.70
O=S(=O)(Nc1nc(C(F)(F)F)co1)c1ccc(Nc2nc(Cc3ccc(Cl)cc3)cs2)cc1 [Compound 258, 4-(4-(4-chlorobenzyl)thiazol-2-ylamino)-N-(4-(trifluoromethyl)oxazol-2-yl)benzenesulfonamide] | < 6.00
Cc1cccc(NS(=O)(=O)c2ccc(Nc3ccn(Cc4ccc(Cl)cc4)n3)cc2F)n1 [Compound 259, 4-(1-(4-chlorobenzyl)-1H-pyrazol-3-ylamino)-2-fluoro-N-(6-methylpyridin-2-yl)benzenesulfonamide] | < 5.52
Cc1nnc(NS(=O)(=O)c2ccc(Nc3ccn(Cc4ccc(Cl)cc4)n3)cc2F)o1 [Compound 261, 4-(1-(4-chlorobenzyl)-1H-pyrazol-3-ylamino)-2-fluoro-N-(5-methyl-1,3,4-oxadiazol-2-yl)benzenesulfonamide] | < 6.00

Now from value to compound:

pIC50 | Compound
5.00 to 5.70 | O=S(=O)(Nc1nccs1)c1ccc(Nc2cnn(Cc3ccc(Cl)cc3)c2)cn1 [Compound 231, 5-(1-(4-chlorobenzyl)-1H-pyrazol-4-ylamino)-N-(thiazol-2-yl)pyridine-2-sulfonamide]
5.00 to 5.70 | Cc1cc(Nc2ccc(S(=O)(=O)Nc3nccs3)nc2)n(-c2ccccc2)n1 [Compound 234, 5-(3-methyl-1-phenyl-1H-pyrazol-5-ylamino)-N-(thiazol-2-yl)pyridine-2-sulfonamide]
5.00 to 5.70 | Cc1cc(Nc2ccc(S(=O)(=O)Nc3nncs3)c(F)c2)n(-c2ccccc2)n1 [Compound 238, 2-fluoro-4-(3-methyl-1-phenyl-1H-pyrazol-5-ylamino)-N-(1,3,4-thiadiazol-2-yl)benzenesulfonamide]
5.00 to 5.70 | Cc1cc(Nc2ccc(S(=O)(=O)Nc3ncns3)c(F)c2)n(-c2ccccc2)n1 [Compound 240, 2-fluoro-4-(3-methyl-1-phenyl-1H-pyrazol-5-ylamino)-N-(1,2,4-thiadiazol-5-yl)benzenesulfonamide]
5.00 to 5.70 | Cc1cc(Nc2ccc(S(=O)(=O)Nc3nnc(-c4ccccc4)s3)c(F)c2)n(-c2ccccc2)n1 [Compound 241, 2-fluoro-4-(3-methyl-1-phenyl-1H-pyrazol-5-ylamino)-N-(5-phenyl-1,3,4-thiadiazol-2-yl)benzenesulfonamide]
< 6.00 | CCc1nnc(NS(=O)(=O)c2ccc(Nc3cc(C)nn3-c3ccccc3)cc2F)s1 [Compound 246, N-(5-ethyl-1,3,4-thiadiazol-2-yl)-2-fluoro-4-(3-methyl-1-phenyl-1H-pyrazol-5-ylamino)benzenesulfonamide]
< 6.00 | COCc1nnc(NS(=O)(=O)c2ccc(Nc3cc(C)nn3-c3ccccc3)cc2F)s1 [Compound 249, 2-fluoro-N-(5-(methoxymethyl)-1,3,4-thiadiazol-2-yl)-4-(3-methyl-1-phenyl-1H-pyrazol-5-ylamino)benzenesulfonamide]
< 6.00 | Cc1cc(Nc2ccc(S(=O)(=O)Nc3nnc(C4CC4)s3)c(F)c2)n(-c2ccccc2)n1 [Compound 250, N-(5-cyclopropyl-1,3,4-thiadiazol-2-yl)-2-fluoro-4-(3-methyl-1-phenyl-1H-pyrazol-5-ylamino)benzenesulfonamide]
< 6.00 | Cc1nnc(NS(=O)(=O)c2ccc(Nc3ccn(Cc4ccc(Cl)cc4)n3)cc2F)s1 [Compound 251, 4-(1-(4-chlorobenzyl)-1H-pyrazol-3-ylamino)-2-fluoro-N-(5-methyl-1,3,4-thiadiazol-2-yl)benzenesulfonamide]
< 6.00 | Cc1cc(Nc2ccc(S(=O)(=O)Nc3nnc(C(C)C)s3)c(F)c2)n(-c2ccccc2)n1 [Compound 252, 2-fluoro-N-(5-isopropyl-1,3,4-thiadiazol-2-yl)-4-(3-methyl-1-phenyl-1H-pyrazol-5-ylamino)benzenesulfonamide]
< 6.00 | COCc1nnc(NS(=O)(=O)c2ccc(Nc3ccn(Cc4ccc(Cl)cc4)n3)cc2F)s1 [Compound 254, 4-(1-(4-chlorobenzyl)-1H-pyrazol-3-ylamino)-2-fluoro-N-(5-(methoxymethyl)-1,3,4-thiadiazol-2-yl)benzenesulfonamide]
< 6.00 | CCc1nnc(NS(=O)(=O)c2ccc(Nc3ccn(Cc4ccc(Cl)cc4)n3)cc2F)s1 [Compound 255, 4-(1-(4-chlorobenzyl)-1H-pyrazol-3-ylamino)-N-(5-ethyl-1,3,4-thiadiazol-2-yl)-2-fluorobenzenesulfonamide]
< 6.00 | O=S(=O)(Nc1cccnn1)c1ccc(Nc2ccn(Cc3ccc(Cl)cc3)n2)cc1F [Compound 260, 4-(1-(4-chlorobenzyl)-1H-pyrazol-3-ylamino)-2-fluoro-N-(pyridazin-3-yl)benzenesulfonamide]
